Laboratory results: US20080319375A1, “Materials, Methods, and Systems for Cavitation-mediated Ultrasonic Drug Delivery in vivo” (Biovaluation & Analysis, Inc., priority 2007, published 2008)

Experiment: Micropipette aspiration of polymersome membranes
Format: physicochemical
Excerpt: Thermal undulations of the quasi-spherical polymersome membranes provide an immediate indication of membrane softness. […] The micromanipulations are done with micropipette systems, as described above, and analogous to those described by Longo et al. (1997) and by Discher et al. (1994).
Analogous to a lipid bilayer, at low but increasing aspiration pressures, the thermally undulating polymersome membrane is progressively smoothed, increasing the projected area logarithmically with tension, t. From the slope of this increase (i.e., in tension units of mN/m) versus the fractional change, α, in vesicle area, the bending modulus, Kb, is calculated (see, e.g., Evans et al., 1990) with the following equation:
Kb≅kBT ln(t)/(8απ)+constant Equation 3 […]
Despite the comparative toughness of the polymersome membrane, a core “cavitation pressure,” Pc, may be readily estimated as pc=tc/d (5) yielding a value of pc=−25 atm. […] Bulk liquids such as water and light organics, are commonly reported to have measured tensile strengths of such a magnitude as may be generically estimated from a ratio of nominal interfacial tensions to molecular dimensions (i.e., ˜γ/d).

area expansion modulus, Ka: ~180 mN/m
SMILES: CCCCCCCC/C=C\CCCCCCCC(=O)O[C@H](COC(=O)CCCCCCCCCCCCCCCCC)COP(=O)([O-])OCC[N+](C)(C)C [SOPC, 1-stearoyl-2-oleoyl phosphatidylcholine]
